Source: ChEMBL document CHEMBL1155858, “Derivatives of (3S)-N-(biphenyl-2-ylmethyl)pyrrolidin-3-amine as selective noradrenaline reuptake inhibitors: Reducing P-gp mediated efflux by modulation of H-bond acceptor capacity” (Bioorg Med Chem Lett, 2008)

Molecular target: T1, Sodium-dependent serotonin transporter (Homo sapiens, UniProt P31645)
Assay: Inhibition of [3H]citalopram uptake at human 5HTT expressed in HEK293 cells by SPA
Type: cell-based
Conditions: not given

T1 sequence (P31645 whole entry): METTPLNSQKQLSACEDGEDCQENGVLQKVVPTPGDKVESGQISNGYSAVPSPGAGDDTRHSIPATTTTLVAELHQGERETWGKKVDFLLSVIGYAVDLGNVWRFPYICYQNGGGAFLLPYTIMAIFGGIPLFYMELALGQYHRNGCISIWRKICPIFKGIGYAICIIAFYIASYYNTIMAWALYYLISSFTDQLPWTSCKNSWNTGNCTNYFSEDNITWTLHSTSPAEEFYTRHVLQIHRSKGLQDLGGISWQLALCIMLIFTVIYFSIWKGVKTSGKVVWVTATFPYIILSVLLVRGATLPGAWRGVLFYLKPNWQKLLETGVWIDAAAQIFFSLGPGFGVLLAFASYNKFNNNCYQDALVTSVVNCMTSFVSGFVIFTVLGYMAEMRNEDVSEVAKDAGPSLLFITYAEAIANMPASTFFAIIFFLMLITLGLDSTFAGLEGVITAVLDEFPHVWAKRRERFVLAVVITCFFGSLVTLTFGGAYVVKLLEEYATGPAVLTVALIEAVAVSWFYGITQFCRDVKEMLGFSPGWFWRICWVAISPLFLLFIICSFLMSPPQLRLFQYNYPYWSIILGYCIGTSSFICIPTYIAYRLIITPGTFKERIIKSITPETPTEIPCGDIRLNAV

Compound	Ki [nM]
CC(C)C(=O)N(Cc1ccccc1C(C)C)[C@H]1CCNC1	544
CCOC(=O)N(Cc1ccccc1-c1ccccc1)[C@H]1CCNC1	1110
CCOC(=O)N(Cc1ccccc1Oc1ccccc1)[C@H]1CCNC1	444
COC(=O)N(Cc1ccccc1-c1ccccc1)[C@H]1CCNC1	4440
O=S(=O)(N(Cc1ccccc1-c1ccccc1)[C@H]1CCNC1)C(F)(F)F	5280
CC(C)OC(=O)N(Cc1ccccc1-c1ccccc1)[C@H]1CCNC1	787
CC(C)C(=O)N(Cc1ccccc1Oc1ccccc1)[C@H]1CCNC1	229

Results, then the molecule that gave them:

Ki [nM]	Compound
1250	CSc1ccccc1CN([C@H]1CCNC1)S(C)(=O)=O
> 10000	CCS(=O)(=O)N(Cc1ccccc1-c1ccccc1)[C@H]1CCN(C)C1
764	CCOC(=O)N(Cc1ccccc1C(C)C)[C@H]1CCNC1
> 10000	CN1CC[C@H](N(Cc2ccccc2-c2ccccc2)S(C)(=O)=O)C1
5680	CCCS(=O)(=O)N(Cc1ccccc1-c1ccccc1)[C@H]1CCNC1
4690	CC(C)S(=O)(=O)N(Cc1ccccc1-c1ccccc1)[C@H]1CCNC1
5010	CN(C)C(=O)N(Cc1ccccc1-c1ccccc1)[C@H]1CCNC1
2890	CS(=O)(=O)N(Cc1ccccc1C(F)(F)F)[C@H]1CCNC1
427	CCOC(=O)N(Cc1ccccc1C(F)(F)F)[C@H]1CCNC1

Molecular target: Cytochrome P450 2D6 (Homo sapiens, UniProt P10635)
Sequence (P10635 whole entry): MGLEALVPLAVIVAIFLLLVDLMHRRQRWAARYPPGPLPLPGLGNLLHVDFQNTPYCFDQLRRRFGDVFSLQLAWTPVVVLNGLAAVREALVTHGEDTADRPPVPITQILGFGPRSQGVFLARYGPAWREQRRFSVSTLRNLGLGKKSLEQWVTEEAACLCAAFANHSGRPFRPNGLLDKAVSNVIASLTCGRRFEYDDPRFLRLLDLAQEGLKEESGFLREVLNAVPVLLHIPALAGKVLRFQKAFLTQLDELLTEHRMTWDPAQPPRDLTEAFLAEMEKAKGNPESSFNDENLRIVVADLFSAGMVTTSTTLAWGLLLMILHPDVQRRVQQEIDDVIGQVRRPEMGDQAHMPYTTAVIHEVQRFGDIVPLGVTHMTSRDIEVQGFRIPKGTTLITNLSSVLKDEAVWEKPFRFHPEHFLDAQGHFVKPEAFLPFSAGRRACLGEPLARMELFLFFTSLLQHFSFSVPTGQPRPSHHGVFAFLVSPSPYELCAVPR
Assay: Inhibition of CYP2D6
Type: ADME
Conditions: not given

Compound	IC50 [nM]
CCOC(=O)N(Cc1ccccc1-c1ccccc1)[C@H]1CCNC1	1210
CCOC(=O)N(Cc1ccccc1Oc1ccccc1)[C@H]1CCNC1	420
COC(=O)N(Cc1ccccc1-c1ccccc1)[C@H]1CCNC1	10600

Results, then the molecule that gave them:

IC50 [nM]	Compound
185	CCCS(=O)(=O)N(Cc1ccccc1-c1ccccc1)[C@H]1CCNC1
350	CC(C)S(=O)(=O)N(Cc1ccccc1-c1ccccc1)[C@H]1CCNC1
> 3000	CC(C)C(=O)N(Cc1cccc(Cl)c1Cl)[C@H]1CCNC1

Molecular target: Cytochrome P450 2C9 (Homo sapiens, UniProt P11712)
Sequence (P11712 whole entry): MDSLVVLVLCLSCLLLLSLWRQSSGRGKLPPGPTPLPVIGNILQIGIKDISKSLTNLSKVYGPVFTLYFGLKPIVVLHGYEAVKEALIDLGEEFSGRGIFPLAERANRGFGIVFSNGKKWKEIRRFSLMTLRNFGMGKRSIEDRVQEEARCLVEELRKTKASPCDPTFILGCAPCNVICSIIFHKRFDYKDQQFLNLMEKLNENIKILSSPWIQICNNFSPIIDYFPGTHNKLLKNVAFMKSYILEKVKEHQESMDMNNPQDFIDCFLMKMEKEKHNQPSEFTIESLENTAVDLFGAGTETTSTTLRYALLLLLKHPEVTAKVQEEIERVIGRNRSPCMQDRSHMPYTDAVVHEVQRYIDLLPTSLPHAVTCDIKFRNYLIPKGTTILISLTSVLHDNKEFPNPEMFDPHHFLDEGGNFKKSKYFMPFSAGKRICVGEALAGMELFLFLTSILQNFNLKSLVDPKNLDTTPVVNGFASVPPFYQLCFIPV
Assay: Inhibition of CYP2C9
Type: ADME
Conditions: not given

IC50 [nM]	Compound
> 3000	CCOC(=O)N(Cc1ccccc1-c1ccccc1)[C@H]1CCNC1

Molecular target: T2, 5-hydroxytryptamine receptor 2B (Homo sapiens, UniProt P41595)
T2 sequence (P41595 whole entry): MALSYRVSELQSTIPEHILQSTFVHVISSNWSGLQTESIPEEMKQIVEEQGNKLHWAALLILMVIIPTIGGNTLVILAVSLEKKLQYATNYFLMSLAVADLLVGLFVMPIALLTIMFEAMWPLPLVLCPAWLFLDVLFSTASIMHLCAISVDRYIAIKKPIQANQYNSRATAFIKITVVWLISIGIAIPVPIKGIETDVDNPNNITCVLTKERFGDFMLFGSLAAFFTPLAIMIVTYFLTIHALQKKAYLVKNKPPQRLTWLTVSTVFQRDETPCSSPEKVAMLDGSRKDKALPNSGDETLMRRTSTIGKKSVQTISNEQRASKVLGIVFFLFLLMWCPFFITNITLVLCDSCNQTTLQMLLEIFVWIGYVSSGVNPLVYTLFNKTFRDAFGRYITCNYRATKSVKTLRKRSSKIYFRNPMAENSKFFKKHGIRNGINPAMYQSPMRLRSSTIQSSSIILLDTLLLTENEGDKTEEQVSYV
Assay: Activity at 5HT2B receptor
Conditions: not given

EC50 [nM]	Compound
> 10000	CCOC(=O)N(Cc1ccccc1-c1ccccc1)[C@H]1CCNC1

Molecular target: CYP2D6 (Homo sapiens, UniProt P10635)
Sequence (P10635 whole entry): as the sequence (P10635 whole entry) above
Assay: Inhibition of CYP2D6 at 3 uM
Type: ADME
Conditions: not given

inhibition at 3 µM [%]	Compound
< 10	CC(C)C(=O)N(Cc1cccc(Cl)c1Cl)[C@H]1CCNC1

Molecular target: CYP1A2 (Homo sapiens, UniProt P05177)
Assay: Inhibition of CYP1A2 at 3 uM
Type: ADME
Conditions: not given

inhibition at 3 µM [%]	Compound
< 40	CC(C)C(=O)N(Cc1cccc(Cl)c1Cl)[C@H]1CCNC1

Test system: Liver microsomes
Assay: Metabolic stability in human liver microsomes
Type: ADME, Microsome
Conditions: not given

Compound	t1/2 [h]
c1ccc(-c2ccccc2CN(C2CCOCC2)[C@H]2CCNC2)cc1	> 2
Clc1cccc(CN(C2CCOCC2)[C@H]2CCNC2)c1Cl	1.67
CC(C)C(=O)N(Cc1cccc(Cl)c1Cl)[C@H]1CCNC1	> 2

Molecular target: T3, Muscarinic acetylcholine receptor M3 (Homo sapiens, UniProt P20309)
Assay: Inhibition of muscarinic M3 receptor at 10 uM
Conditions: not given
Target sequence in this assay (P20309 whole entry, looked up): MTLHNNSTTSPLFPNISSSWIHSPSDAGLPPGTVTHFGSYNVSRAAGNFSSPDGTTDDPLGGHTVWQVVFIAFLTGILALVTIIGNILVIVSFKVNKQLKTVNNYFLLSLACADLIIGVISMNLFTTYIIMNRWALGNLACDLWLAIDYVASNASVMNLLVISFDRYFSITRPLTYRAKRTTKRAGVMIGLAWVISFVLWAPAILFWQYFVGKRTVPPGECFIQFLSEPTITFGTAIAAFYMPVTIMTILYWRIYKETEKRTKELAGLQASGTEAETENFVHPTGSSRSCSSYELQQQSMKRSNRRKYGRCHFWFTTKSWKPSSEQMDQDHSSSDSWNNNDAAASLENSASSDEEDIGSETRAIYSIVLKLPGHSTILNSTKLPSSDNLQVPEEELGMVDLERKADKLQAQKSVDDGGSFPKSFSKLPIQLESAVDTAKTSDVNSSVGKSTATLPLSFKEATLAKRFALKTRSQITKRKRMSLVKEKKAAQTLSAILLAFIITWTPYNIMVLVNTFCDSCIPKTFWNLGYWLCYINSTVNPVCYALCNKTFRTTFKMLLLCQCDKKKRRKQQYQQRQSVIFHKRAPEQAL

inhibition [%]	Compound
> 80	CCOC(=O)N(Cc1ccccc1-c1ccccc1)[C@H]1CCNC1

Molecular target: CYP3A4 (Homo sapiens, UniProt P08684)
Assay: Inhibition of CYP3A4 at 3 uM
Type: ADME
Conditions: not given

inhibition at 3 µM [%]	Compound
< 40	CC(C)C(=O)N(Cc1cccc(Cl)c1Cl)[C@H]1CCNC1

Test system: not listed separately
Assay: Dissociation constant, pKa of the compound
Type: physicochemical
Conditions: not given

pKa	Compound
9.6	CCOC(=O)N(Cc1ccccc1-c1ccccc1)[C@H]1CCNC1

Molecular target: T4, 5-hydroxytryptamine receptor 2A (Homo sapiens, UniProt P28223)
T4 sequence (P28223 whole entry): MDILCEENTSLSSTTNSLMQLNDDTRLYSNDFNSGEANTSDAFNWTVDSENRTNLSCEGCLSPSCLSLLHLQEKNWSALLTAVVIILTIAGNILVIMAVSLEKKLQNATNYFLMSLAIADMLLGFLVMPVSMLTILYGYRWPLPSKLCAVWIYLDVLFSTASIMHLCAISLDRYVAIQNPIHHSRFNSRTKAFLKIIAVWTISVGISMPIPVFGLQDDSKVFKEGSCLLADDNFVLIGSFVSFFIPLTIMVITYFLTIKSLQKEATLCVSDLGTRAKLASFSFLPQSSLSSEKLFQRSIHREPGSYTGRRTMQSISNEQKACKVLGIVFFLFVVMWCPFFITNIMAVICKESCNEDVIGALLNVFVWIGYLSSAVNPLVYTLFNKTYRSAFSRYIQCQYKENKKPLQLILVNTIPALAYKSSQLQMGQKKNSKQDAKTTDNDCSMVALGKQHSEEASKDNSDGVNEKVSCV
Assay: Activity at 5HT2A receptor
Conditions: not given

EC50 [nM]	Compound
> 10000	CCOC(=O)N(Cc1ccccc1-c1ccccc1)[C@H]1CCNC1

Test system: not listed separately
Assay: Inhibition of [3H]NA uptake at rat NET expressed in HEK293 cells
Type: cell-based
Conditions: not given

Compound	Ki [nM]
CCOC(=O)N(Cc1ccccc1-c1ccccc1)[C@H]1CCNC1	2.5

Test system: not listed separately
Assay: Distribution coefficient, log D at pH 7.4
Type: physicochemical
Conditions: octanol/water

logD	Compound
1.1	CCOC(=O)N(Cc1ccccc1-c1ccccc1)[C@H]1CCNC1

Molecular target: T5, Sodium-dependent dopamine transporter (Homo sapiens, UniProt Q01959)
T5 sequence (Q01959 whole entry): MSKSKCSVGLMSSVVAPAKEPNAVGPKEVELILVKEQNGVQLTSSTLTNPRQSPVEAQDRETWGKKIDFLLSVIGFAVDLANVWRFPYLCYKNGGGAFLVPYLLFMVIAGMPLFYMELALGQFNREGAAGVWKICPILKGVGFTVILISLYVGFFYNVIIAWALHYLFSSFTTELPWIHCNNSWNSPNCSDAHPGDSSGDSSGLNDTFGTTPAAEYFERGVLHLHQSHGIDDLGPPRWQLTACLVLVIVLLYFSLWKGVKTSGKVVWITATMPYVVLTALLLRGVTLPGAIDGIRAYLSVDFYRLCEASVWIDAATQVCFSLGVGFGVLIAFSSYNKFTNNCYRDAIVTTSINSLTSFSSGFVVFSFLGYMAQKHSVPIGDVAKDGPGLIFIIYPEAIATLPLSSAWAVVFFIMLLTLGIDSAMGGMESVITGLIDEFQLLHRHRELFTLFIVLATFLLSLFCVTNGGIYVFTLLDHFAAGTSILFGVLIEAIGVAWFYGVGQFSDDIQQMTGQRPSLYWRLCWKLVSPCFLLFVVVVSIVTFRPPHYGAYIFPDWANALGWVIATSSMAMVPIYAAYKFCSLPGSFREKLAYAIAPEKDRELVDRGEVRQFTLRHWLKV
Conditions: not given

IC50 [nM]	Compound
1250	CC(C)C(=O)N(Cc1cccc(Cl)c1Cl)[C@H]1CCNC1

Molecular target: 5-hydroxytryptamine receptor 2C (Homo sapiens, UniProt P28335)
Assay: Activity at 5HT2C receptor
Conditions: not given

EC50 [nM]	Compound
> 10000	CCOC(=O)N(Cc1ccccc1-c1ccccc1)[C@H]1CCNC1

Molecular target: T1, Sodium-dependent serotonin transporter
Conditions: not given

IC50 [nM]	Compound
12	CC(C)C(=O)N(Cc1cccc(Cl)c1Cl)[C@H]1CCNC1

Test system: Hepatocyte
Assay: Metabolic stability in human hepatocytes assessed as intrinsic clearance
Type: ADME, cell-based, Liver
Conditions: not given

CL [µL/min/mg]	Compound
< 5	CCOC(=O)N(Cc1ccccc1-c1ccccc1)[C@H]1CCNC1

Molecular target: T2, 5-hydroxytryptamine receptor 2B
Assay: Inhibition of 5HT2B receptor at 10 uM
Conditions: not given

inhibition [%]	Compound
> 80	CCOC(=O)N(Cc1ccccc1-c1ccccc1)[C@H]1CCNC1

Molecular target: 5-hydroxytryptamine receptor 2C (Homo sapiens) (UniProt P28335)
Assay: Inhibition of 5HT2C receptor at 10 uM
Conditions: not given

inhibition [%]	Compound
> 80	CCOC(=O)N(Cc1ccccc1-c1ccccc1)[C@H]1CCNC1

Test system: Rattus norvegicus
Assay: Increase in noradrenaline level in interstitial fluid of sc dosed conscious rat prefrontal cortex relative to baseline
Type: functional
Conditions: not given

Compound	Activity [%]
CCOC(=O)N(Cc1ccccc1-c1ccccc1)[C@H]1CCNC1	400

Test system: not listed separately
Assay: Apparent permeability from basolateral to apical side of the human Caco-2 membrane
Type: ADME, cell-based
Conditions: not given

Papp B→A [×10⁻⁶ cm/s]	Compound
28	CCOC(=O)N(Cc1ccccc1-c1ccccc1)[C@H]1CCNC1

Molecular target: Sodium-dependent noradrenaline transporter (Homo sapiens, UniProt P23975)
Sequence (P23975 whole entry): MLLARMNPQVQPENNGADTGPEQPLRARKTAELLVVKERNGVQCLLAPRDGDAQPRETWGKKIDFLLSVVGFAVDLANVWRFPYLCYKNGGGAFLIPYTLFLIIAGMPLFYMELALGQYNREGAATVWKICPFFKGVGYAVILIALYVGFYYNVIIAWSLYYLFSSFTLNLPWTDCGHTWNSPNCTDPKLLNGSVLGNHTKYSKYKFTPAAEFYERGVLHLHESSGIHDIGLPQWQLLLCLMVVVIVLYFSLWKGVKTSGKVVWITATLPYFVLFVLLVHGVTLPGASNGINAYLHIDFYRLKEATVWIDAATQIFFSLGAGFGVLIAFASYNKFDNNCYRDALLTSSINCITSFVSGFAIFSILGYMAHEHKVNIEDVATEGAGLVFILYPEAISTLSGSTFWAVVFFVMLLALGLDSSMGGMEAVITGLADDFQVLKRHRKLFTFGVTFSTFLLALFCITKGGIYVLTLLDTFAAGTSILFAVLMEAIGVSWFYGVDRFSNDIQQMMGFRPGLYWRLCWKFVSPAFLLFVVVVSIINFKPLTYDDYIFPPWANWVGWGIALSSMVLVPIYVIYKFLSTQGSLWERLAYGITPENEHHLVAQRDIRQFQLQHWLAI
Assay: Inhibition of [3H]nisoxetine reuptake at human NET expressed in HEK293 cells by SPA
Type: cell-based
Conditions: not given

Compound	Ki [nM]
CC(C)C(=O)N(Cc1ccccc1C(C)C)[C@H]1CCNC1	70
CCOC(=O)N(Cc1ccccc1-c1ccccc1)[C@H]1CCNC1	8
CCOC(=O)N(Cc1ccccc1Oc1ccccc1)[C@H]1CCNC1	23
COC(=O)N(Cc1ccccc1-c1ccccc1)[C@H]1CCNC1	18
O=S(=O)(N(Cc1ccccc1-c1ccccc1)[C@H]1CCNC1)C(F)(F)F	30
CC(C)OC(=O)N(Cc1ccccc1-c1ccccc1)[C@H]1CCNC1	14
CC(C)C(=O)N(Cc1ccccc1Oc1ccccc1)[C@H]1CCNC1	34

The next lines start with the values.

Ki [nM]	Compound
86	CSc1ccccc1CN([C@H]1CCNC1)S(C)(=O)=O
466	CCS(=O)(=O)N(Cc1ccccc1-c1ccccc1)[C@H]1CCN(C)C1
49	CCOC(=O)N(Cc1ccccc1C(C)C)[C@H]1CCNC1
748	CN1CC[C@H](N(Cc2ccccc2-c2ccccc2)S(C)(=O)=O)C1
7	CCCS(=O)(=O)N(Cc1ccccc1-c1ccccc1)[C@H]1CCNC1
10	CC(C)S(=O)(=O)N(Cc1ccccc1-c1ccccc1)[C@H]1CCNC1
53	CN(C)C(=O)N(Cc1ccccc1-c1ccccc1)[C@H]1CCNC1
86	CS(=O)(=O)N(Cc1ccccc1C(F)(F)F)[C@H]1CCNC1
46	CCOC(=O)N(Cc1ccccc1C(F)(F)F)[C@H]1CCNC1

Molecular target: T3, Muscarinic acetylcholine receptor M3
Assay: Inhibition of muscarinic M3 receptor
Conditions: not given
Target sequence in this assay (P20309 whole entry): as the sequence (P20309 whole entry, looked up) above

Ki [nM]	Compound
635	CCOC(=O)N(Cc1ccccc1-c1ccccc1)[C@H]1CCNC1

Molecular target: Cytochrome P450 3A4 (Homo sapiens, UniProt P08684)
Assay: Inhibition of CYP3A4
Type: ADME
Conditions: not given

IC50 [nM]	Compound
> 3000	CCOC(=O)N(Cc1ccccc1-c1ccccc1)[C@H]1CCNC1

Test system: not listed separately
Assay: Metabolic stability in human liver microsomes assessed as intrinsic clearance
Type: ADME, Microsome
Conditions: not given

Compound	microsomal CLint [µL/min/mg]
CC(C)C(=O)N(Cc1ccccc1C(C)C)[C@H]1CCNC1	< 7
CCOC(=O)N(Cc1ccccc1-c1ccccc1)[C@H]1CCNC1	< 7
CCOC(=O)N(Cc1ccccc1Oc1ccccc1)[C@H]1CCNC1	21
COC(=O)N(Cc1ccccc1-c1ccccc1)[C@H]1CCNC1	< 7
CC(C)C(=O)N(Cc1ccccc1Oc1ccccc1)[C@H]1CCNC1	10

More lines, now with the values ahead:

microsomal CLint [µL/min/mg]	Compound
< 7	CSc1ccccc1CN([C@H]1CCNC1)S(C)(=O)=O
12	CCCS(=O)(=O)N(Cc1ccccc1-c1ccccc1)[C@H]1CCNC1
20	CC(C)S(=O)(=O)N(Cc1ccccc1-c1ccccc1)[C@H]1CCNC1

Test system: not listed separately
Assay: Apparent permeability from apical to basolateral side of the human Caco-2 membrane
Type: ADME, cell-based
Conditions: not given

Papp A→B [×10⁻⁶ cm/s]	Compound
27	CCOC(=O)N(Cc1ccccc1-c1ccccc1)[C@H]1CCNC1

Test system: not listed separately
Assay: Apparent permeability from apical to basolateral side of the MDCK cells expressing MDR1 gene
Type: ADME, cell-based, Canis lupus familiaris
Conditions: dog

Papp A→B [×10⁻⁶ cm/s]	Compound
22	CCOC(=O)N(Cc1ccccc1-c1ccccc1)[C@H]1CCNC1

Molecular target: T4, 5-hydroxytryptamine receptor 2A
Assay: Inhibition of 5HT2A receptor at 10 uM
Conditions: not given

inhibition [%]	Compound
> 80	CCOC(=O)N(Cc1ccccc1-c1ccccc1)[C@H]1CCNC1

Test system: not listed separately
Assay: Apparent permeability from basolateral to apical side of the MDCK cells expressing MDR1 gene
Type: ADME, cell-based, Canis lupus familiaris
Conditions: dog

Papp B→A [×10⁻⁶ cm/s]	Compound
44	CCOC(=O)N(Cc1ccccc1-c1ccccc1)[C@H]1CCNC1

Molecular target: CYP2C9 (Homo sapiens, UniProt P11712)
Sequence (P11712 whole entry): as the sequence (P11712 whole entry) above
Assay: Inhibition of CYP2C9 at 3 uM
Type: ADME
Conditions: not given

inhibition at 3 µM [%]	Compound
< 40	CC(C)C(=O)N(Cc1cccc(Cl)c1Cl)[C@H]1CCNC1

Molecular target: not listed separately
Assay: Inhibition of sodium channel site 2
Conditions: not given

Ki [nM]	Compound
1100	CCOC(=O)N(Cc1ccccc1-c1ccccc1)[C@H]1CCNC1

Molecular target: T5, Sodium-dependent dopamine transporter
Assay: Inhibition of [3H]dopamine reuptake at human DAT expressed in HEK293 cells by SPA
Type: cell-based
Conditions: not given

Compound	Ki [nM]
CC(C)C(=O)N(Cc1ccccc1C(C)C)[C@H]1CCNC1	3410
CCOC(=O)N(Cc1ccccc1-c1ccccc1)[C@H]1CCNC1	3030
CCOC(=O)N(Cc1ccccc1Oc1ccccc1)[C@H]1CCNC1	1900
COC(=O)N(Cc1ccccc1-c1ccccc1)[C@H]1CCNC1	3190
O=S(=O)(N(Cc1ccccc1-c1ccccc1)[C@H]1CCNC1)C(F)(F)F	2080
CC(C)OC(=O)N(Cc1ccccc1-c1ccccc1)[C@H]1CCNC1	2010
CC(C)C(=O)N(Cc1ccccc1Oc1ccccc1)[C@H]1CCNC1	3500

Now from value to molecule:

Ki [nM]	Compound
2950	CSc1ccccc1CN([C@H]1CCNC1)S(C)(=O)=O
3340	CCOC(=O)N(Cc1ccccc1C(C)C)[C@H]1CCNC1
2070	CCCS(=O)(=O)N(Cc1ccccc1-c1ccccc1)[C@H]1CCNC1
2700	CC(C)S(=O)(=O)N(Cc1ccccc1-c1ccccc1)[C@H]1CCNC1
2970	CN(C)C(=O)N(Cc1ccccc1-c1ccccc1)[C@H]1CCNC1
2890	CS(=O)(=O)N(Cc1ccccc1C(F)(F)F)[C@H]1CCNC1
3210	CCOC(=O)N(Cc1ccccc1C(F)(F)F)[C@H]1CCNC1

Molecular target: T6, Cytochrome P450 1A2 (Homo sapiens, UniProt P05177)
T6 sequence (P05177 whole entry): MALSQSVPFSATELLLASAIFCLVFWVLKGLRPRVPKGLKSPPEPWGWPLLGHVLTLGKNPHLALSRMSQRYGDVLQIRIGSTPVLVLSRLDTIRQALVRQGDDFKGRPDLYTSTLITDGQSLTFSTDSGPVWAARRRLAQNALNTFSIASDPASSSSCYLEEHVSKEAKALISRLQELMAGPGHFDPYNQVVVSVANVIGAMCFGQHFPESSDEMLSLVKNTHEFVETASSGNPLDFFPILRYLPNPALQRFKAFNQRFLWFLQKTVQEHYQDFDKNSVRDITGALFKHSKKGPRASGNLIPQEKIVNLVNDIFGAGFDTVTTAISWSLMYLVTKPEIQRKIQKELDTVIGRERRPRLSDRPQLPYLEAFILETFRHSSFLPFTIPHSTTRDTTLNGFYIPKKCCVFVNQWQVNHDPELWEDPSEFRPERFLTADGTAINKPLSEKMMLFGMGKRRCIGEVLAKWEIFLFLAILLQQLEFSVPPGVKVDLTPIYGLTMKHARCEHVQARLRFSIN
Assay: Inhibition of CYP1A2
Type: ADME
Conditions: not given

IC50 [nM]	Compound
> 3000	CCOC(=O)N(Cc1ccccc1-c1ccccc1)[C@H]1CCNC1

Molecular target: not listed separately
Assay: Inhibition of L type calcium channel
Conditions: not given

Ki [nM]	Compound
1500	CCOC(=O)N(Cc1ccccc1-c1ccccc1)[C@H]1CCNC1
